# Reference: patent US10260039B2, “Microgels and microtissues for use in tissue engineering” (Massachusetts Institute of Technology, priority 2011, dated 2019)
# Assays:
# [1] = tested on: 3D engineered liver tissues; assay: hepatic function of 3D engineered liver tissues (albumin secretion); format: cell-based, human
# From the text: FIG. 10. A) Albumin secretion as a measure of hepatic phenotype, elevated in the presence of fibroblasts and RGDS peptide. B) Luminex bead measurements of human drug metabolism enzyme genes, showing upregulation of the genes in 3D as opposed to 2D, in various phases of drug metabolism.
# More recently, it has been possible to extend the function of 3D engineered liver tissues even further, by addition of a micropatterning step pre-encapsulation (FIG. 11).
# encapsulated tumor cells = assay: 3D proliferation of encapsulated tumor cells in microtissues (large-particle flow analyzer); format: cell-based
# From the text: FIG. 16. Microtissue proliferation modulated by (a) incorporated extracellular matrix molecules, or (b) culture in soluble growth factors.
# FIG. 17. Differences in tumor cell responses to small molecules in 2D vs. 3D culture. (a) Comparison of proliferation rates on 2D-microplate and 3D-microtissue formats relative to untreated controls. (b) Growth curve over time of tumor cells in 2D measured by microplate fluorescence, and (c) Growth curve over time of tumor cells in 3D measured by gel dissolution and DNA quantitation.
# The in vitro 3D tumor model platform combines the split-injection encapsulation chip described in detail above with a large-particle flow analyzer and sorter (COPAS Biosort by Union Biometrica). Cells are first encapsulated within microtissues (˜5000/min) that can contain tumor cells, stromal cells, and various entrapped ECM. These microtissues are then further enriched using the flow sorter that measures the fluorescence intensity each microtissue, correlating with the density of zs-green tumor cells in each microtissue. (FIG. 15a), and can sort the microtissues (˜25 selected/min) into low, medium, and high homotypic cell density bins (FIG. 15b). […] Selected populations of microtissues are then exposed to stimuli in culture such as growth factors and inhibitors, and their proliferation over days is detected on a population level (FIG. 15b).
substance,measurement,setting,value
"RGDS: adhesive peptide (SEQ ID NO: 1), acrylate-PEG-RGDS incorporated in hydrogel; ligates α5β1 integrin (not fully specified; acrylate-PEG conjugate in hydrogel)",hepatic functions,"[1]; 3D culture, ligation of α5β1 integrin via RGDS (FIG. 10A)",further improved hepatic functions
same,albumin secretion as a measure of hepatic phenotype,[1]; in the presence of fibroblasts and RGDS peptide (FIG. 10A),elevated
TGF-β,slowing of 3D proliferation of encapsulated tumor cells,"encapsulated tumor cells; exogenous growth factor in culture, 3D microtissues (FIG. 16)",~80%
fibronectin,3D proliferation (growth) of encapsulated tumor cells,encapsulated tumor cells; extracellular matrix protein incorporated in microtissues (FIG. 16),promoted growth
